Earlier results, collected in article PMC5548886 (Cancer Medicine, 2017).

Experiments:
[1] = tested on: advanced or metastatic melanoma; conditions: phase II trial; cited from earlier work
pERK = tested on: pERK; set-up: method as in PMID 20823850; conditions: at the recommended phase II dose; cited from earlier work

Structure (SMILES)	response rate [1]	pERK suppression (pERK)
CNC(=O)c1ccccc1Sc1ccc2c(/C=C/c3ccccn3)n[nH]c2c1 [axitinib]	~ 19%	–
CCCS(=O)(=O)Nc1ccc(F)c(C(=O)c2c[nH]c3ncc(-c4ccc(Cl)cc4)cc23)c1F [vemurafenib]	–	over 80%
